The target in assay [1] is T1, bradykinin receptor of the B2 class (rat uterus) (Rattus norvegicus, UniProt P25023).
T1 construct: concentration effect curves to bradykinin (BK) on rat uterus in vitro; from tissue; host or cells: rat uterus
T1 sequence (P25023 1-396): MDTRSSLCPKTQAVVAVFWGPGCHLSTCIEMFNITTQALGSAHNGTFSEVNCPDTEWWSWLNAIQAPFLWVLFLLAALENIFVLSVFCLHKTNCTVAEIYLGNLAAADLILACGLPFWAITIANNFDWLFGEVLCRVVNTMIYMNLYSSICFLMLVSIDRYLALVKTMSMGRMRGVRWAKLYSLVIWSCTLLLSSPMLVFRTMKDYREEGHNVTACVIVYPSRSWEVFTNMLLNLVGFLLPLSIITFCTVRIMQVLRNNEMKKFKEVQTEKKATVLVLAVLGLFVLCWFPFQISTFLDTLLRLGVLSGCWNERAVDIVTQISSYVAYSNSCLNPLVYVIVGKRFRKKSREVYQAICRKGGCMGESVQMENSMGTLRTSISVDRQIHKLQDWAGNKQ
Description: Rat uterus (RU) in vitro, antagonism of bradykinin. The note with it: for RU % REC: recovery after wash. A digest of the protocol:
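Isolated rat uterus; bradykinin antagonism expressed as pA2, the negative log molar antagonist concentration that halves agonist potency. After the highest antagonist concentration, tissues were washed extensively and percent recovery was recorded.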

In assay [2] the target is T2, bradykinin receptor of the B2 class (guinea-pig ileum) (Cavia porcellus, UniProt O70526).
T2 sequence (O70526 1-372): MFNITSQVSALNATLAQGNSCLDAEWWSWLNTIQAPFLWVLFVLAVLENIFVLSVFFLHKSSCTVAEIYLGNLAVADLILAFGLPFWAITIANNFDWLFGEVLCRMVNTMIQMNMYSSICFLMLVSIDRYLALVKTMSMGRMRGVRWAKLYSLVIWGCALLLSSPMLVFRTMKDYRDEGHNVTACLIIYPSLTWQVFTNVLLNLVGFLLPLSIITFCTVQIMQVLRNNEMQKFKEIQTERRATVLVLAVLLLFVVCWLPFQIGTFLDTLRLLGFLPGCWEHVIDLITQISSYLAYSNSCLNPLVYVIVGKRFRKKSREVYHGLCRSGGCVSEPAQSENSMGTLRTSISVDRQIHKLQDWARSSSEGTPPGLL

Assay [3] deals with T2, bradykinin receptor of the B2 class (guinea-pig ileum). To be noted: for GPI % REC: recovery after wash, lower = longer duration.
For assay [4], the target named is T3, bradykinin receptor of the B2 class (rabbit jugular vein) (Oryctolagus cuniculus, UniProt Q28642).
T3 construct: from tissue; host or cells: rabbit jugular vein
T3 sequence (Q28642 1-367): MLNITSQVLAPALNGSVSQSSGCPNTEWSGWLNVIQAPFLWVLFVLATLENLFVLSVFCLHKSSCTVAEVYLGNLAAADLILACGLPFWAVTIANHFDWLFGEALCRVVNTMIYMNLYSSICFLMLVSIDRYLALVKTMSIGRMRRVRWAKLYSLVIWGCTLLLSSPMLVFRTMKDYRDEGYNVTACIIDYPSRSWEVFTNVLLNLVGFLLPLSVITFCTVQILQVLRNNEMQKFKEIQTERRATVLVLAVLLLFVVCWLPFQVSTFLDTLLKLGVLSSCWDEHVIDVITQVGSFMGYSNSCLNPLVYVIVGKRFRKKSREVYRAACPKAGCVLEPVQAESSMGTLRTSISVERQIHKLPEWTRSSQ
In words: Rabbit jugular vein (RJV) in vitro, antagonism of bradykinin. The note with it: for RJV % REC: recovery after wash. How it is done: Thus in vitro studies were performed on standard assay systems, namely, guinea-pig ileum (GPI), rat uterus (RU) and rabbit jugular vein (RJV). […] The potency of each compound was assessed as a pA2 value according to the method of Arunlakshana & Schild, Br. J. Pharmacol. Chemother., 14:48-58 (1959). The PA2 can be defined as the negative logarithm of the molar concentration of the antagonist in the presence of which the potency of the agonist is reduced two-fold, i.e. twice the amount of agonist is required to produce a given response in the presence of, than in the absence of, the antagonist. A high potency of antagonism is indicated by a high PA2 value, i.e., a low concentration of antagonist is effective.
The percentage recovery (% Rec) was also determined for compounds with respect to each assay. Percentage recovery is a measure of the duration of action, the lower the percentage recovery value, the greater the duration of action of the compound.

For assay [5], the system named is bradykinin-induced hypotension. In words: Bradykinin-induced hypotension in the anesthetized rat. The class given is in vivo. The note with it: intravenous infusion 25 μg kg^-1 min^-1; bradykinin 4×10^-9 moles; FIG. 3.
Assay [6] concerns bradykinin-induced vascular permeability. In words: Rabbit skin vascular permeability (Evans Blue, intradermal bradykinin). The class given is in vivo. How it is done:
In these experiments, two protocols were used. The first protocol used the classical assay in which bradykinin was injected intradermally either alone or in combination with the compound under investigation following intravenous administration of Evans Blue dye. Thirty minutes after intradermal injection of bradykinin with and without the compound, the animal was killed, its skin removed and the area of "blueing" (i.e., vascular permeability or edema) measured.
The second protocol involved pre-injecting the test compound either 15 or 30 minutes before injecting bradykinin in the same site. The results are shown in FIGS. 2B and 2C, respectively.

Setting [7] is: Table A, read-out: RJV pA2 (converted).

Structures are written as SMILES. Where two headings read alike, the source gives them in different places. Peptide text beside a SMILES is read from it.

For `CC(C)C[C@H](NC(=O)[C@@H](Cc1ccccc1)NC(=O)[C@H](CO)NC(=O)[C@H](Cc1ccccc1)NC(=O)CNC(=O)[C@@H]1C[C@@H](O)CN1C(=O)[C@@H]1CCCN1C(=O)[C@H](CCCNC(=N)N)NC(=O)[C@H](N)CCCNC(=N)N)C(=O)N[C@@H](CCCNC(=N)N)C(=O)O` [CP-0088, dARG^0 -Arg^1 -Pro^2 -Hyp^3 -Gly^4 -Phe^5 -Ser^6 -(d)Phe^7 -Leu^8 -Arg^9, reference compound] (HELM PEPTIDE1{[dR].R.P.[Hyp].G.F.S.[dF].L.R}$$$$V2.0), the Kb was 39.8 nM in assay [1] (Table A, read-out: RU pA2 (converted)); 251 nM in assay [2]; 3.16 nM in assay [4] (setting [7]). The “RU % REC” value in assay [1] (Table A) was 100%. The “% REC MONOMER” value in assay [1] (Table C, rat uterus) is reported as 100%. Moreover, the “pA2 MONOMER” value in assay [1] (Table C, rat uterus, P.A. = Partial Agonist) was 7.4. Besides, the “RAT UTERUS pA2” value in assay [1] (Table F) is on record as 7.4. Moreover, in assay [1] (Table F, rat uterus), the “% RECOVERY” value came out at 100%. Moreover, the “GPI % REC” value in assay [3] (Table A) stood at 100%. Moreover, the “RJV % REC” value in assay [4] (Table A) is given as 90%.

For the compound `CC(C)C[C@H](NC(=O)[C@@H](Cc1ccccc1)NC(=O)[C@H](CS)NC(=O)[C@H](Cc1ccccc1)NC(=O)CNC(=O)[C@@H]1C[C@@H](O)CN1C(=O)[C@@H]1CCCN1C(=O)[C@H](CCCNC(=N)N)NC(=O)[C@H](N)CCCNC(=N)N)C(=O)N[C@@H](CCCNC(=N)N)C(=O)O` [CP-0126] (HELM PEPTIDE1{[dR].R.P.[Hyp].G.F.C.[dF].L.R}$$$$V2.0), the “Recovery of bradykinin concentration effect curve after washing” value in assay [1] (rat uterus, after highest antagonist concentration, FIGS. 1A/1B) is listed as “almost returns to that seen in the control”. Moreover, the Kb in assay [2] was 501 nM; in assay [2] (GPI pA2, Table A), 398 nM; in assay [4], 1.58 nM. Moreover, the “Inhibition of hypotensive response to bradykinin” value in assay [5] is listed as “almost totally ineffective”. For the same compound, the “GPI pA2” value in assay [3] was “≈ 6.3”. The “RJV % REC” value in assay [4] (Table A) is given as 60%. Moreover, in assay [6] (intradermal, injected in combination with bradykinin, FIG. 2A), the “Inhibition of bradykinin-induced vascular permeability, co-injected” value is “more potent than CP-0127”. Further, the “Inhibition of bradykinin-induced vascular permeability, pre-injected” value in assay [6] (pre-injected 15 or 30 minutes before bradykinin in the same site, FIGS. 2B/2C) is “significantly less effective”.

For `CC(C)C[C@H](NC(=O)[C@@H](Cc1ccccc1)NC(=O)[C@H](CSC1CC(=O)N(CCCCCCN2C(=O)CC(SC[C@H](NC(=O)[C@H](Cc3ccccc3)NC(=O)CNC(=O)[C@@H]3C[C@@H](O)CN3C(=O)[C@@H]3CCCN3C(=O)[C@H](CCCNC(=N)N)NC(=O)[C@H](N)CCCNC(=N)N)C(=O)N[C@H](Cc3ccccc3)C(=O)N[C@@H](CC(C)C)C(=O)N[C@@H](CCCNC(=N)N)C(=O)O)C2=O)C1=O)NC(=O)[C@H](Cc1ccccc1)NC(=O)CNC(=O)[C@@H]1C[C@@H](O)CN1C(=O)[C@@H]1CCCN1C(=O)[C@H](CCCNC(=N)N)NC(=O)[C@H](N)CCCNC(=N)N)C(=O)N[C@@H](CCCNC(=N)N)C(=O)O` (some centres unmarked) [CP-0127] (HELM PEPTIDE1{[dR].R.P.[Hyp].G.F.C.[dF].L.R}|PEPTIDE2{[dR].R.P.[Hyp].G.F.C.[dF].L.R}|CHEM1{[O=C1CC([*:1])C(=O)N1CCCCCCN1C(=O)CC([*:2])C1=O]}$PEPTIDE1,CHEM1,7:R3-1:R1|PEPTIDE2,CHEM1,7:R3-1:R2$$$V2.0), the “RU % REC” value in assay [1] (Table A) was 50%. Further, in assay [1] (Table C, rat uterus), the “% REC DIMER” value came to 50% and the “pA2 DIMER” value was 8.8. Besides, the “% REC (40 MIN)” value in assay [1] (Table D, 40 min) was determined as 50%. Moreover, the “pA2 (UTERUS)” value in assay [1] (Table D, effect of linker length) stood at 8.8. Besides, in assay [1] (Table E), the “RAT UTERUS % RECOVERED” value came out at 50% and the “RAT UTERUS pA2” value worked out at 8.8. Also, in assay [1] (Table F, rat uterus), the “% RECOVERY” value is on record as 50%. This compound had a Kb in assay [2] (pA2 GUINEA PIG ILEUM, Table B, Cys position scan, monomers and BMH dimers) of approximately 20 nM. Besides, in assay [3] (Table A), the “GPI pA2” value was found to be 7.7 and the “GPI % REC” value is 100%. For the same compound, the Kb in assay [4] (setting [7]) is 0.0316 nM. Besides, in assay [4] (Table A), the “RJV % REC” value turned out to be 10%.

The record behind these values is patent US5416191A, “Bradykinin antagonists” (Cortech, Inc., priority 1993, dated 1995).
